# Reference: JPH07118153A, “抗ウレアーゼ剤” (Eisai Co Ltd, priority 1993, dated 1995)
# Legend:
# [1] = target: T1, H. pylori-produced urease [H.pylori産生ウレアーゼ] (Helicobacter pylori, UniProt P69996); conditions: cited from earlier work; for inhibition of H. pylori-produced urease: Antimicrobial Agents and Chemotherapy, 37(4), 769-774, 1993
# Target sequence in this assay (P69996 whole entry): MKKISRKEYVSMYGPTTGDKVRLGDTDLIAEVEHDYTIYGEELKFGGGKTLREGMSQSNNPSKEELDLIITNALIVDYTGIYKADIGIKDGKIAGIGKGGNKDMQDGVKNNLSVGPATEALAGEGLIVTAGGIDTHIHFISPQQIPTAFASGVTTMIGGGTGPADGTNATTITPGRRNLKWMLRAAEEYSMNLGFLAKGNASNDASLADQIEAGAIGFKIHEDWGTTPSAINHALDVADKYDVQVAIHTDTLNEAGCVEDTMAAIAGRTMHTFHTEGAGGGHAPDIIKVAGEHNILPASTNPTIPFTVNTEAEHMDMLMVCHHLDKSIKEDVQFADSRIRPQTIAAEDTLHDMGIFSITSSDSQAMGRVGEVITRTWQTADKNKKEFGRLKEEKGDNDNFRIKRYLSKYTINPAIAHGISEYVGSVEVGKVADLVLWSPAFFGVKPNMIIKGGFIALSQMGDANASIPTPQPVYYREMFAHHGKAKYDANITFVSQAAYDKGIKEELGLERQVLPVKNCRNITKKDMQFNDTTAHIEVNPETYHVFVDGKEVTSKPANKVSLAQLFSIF
# Target sequence in this assay (P14916 whole entry, further chain): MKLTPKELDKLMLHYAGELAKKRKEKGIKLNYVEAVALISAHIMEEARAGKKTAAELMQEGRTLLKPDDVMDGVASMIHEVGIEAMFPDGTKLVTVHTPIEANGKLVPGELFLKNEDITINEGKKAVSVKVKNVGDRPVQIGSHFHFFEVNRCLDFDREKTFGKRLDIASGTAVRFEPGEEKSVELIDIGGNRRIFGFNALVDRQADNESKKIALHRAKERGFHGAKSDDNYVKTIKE
# [2] = test system: a wide range of ureases [幅広い種類のウレアーゼ]; assay: Urease inhibition across ureases (tables 2 and 4 taken together); format: biochemical; conditions: from tables 2 and 4
# [3] = target: T1, H. pylori-produced urease [H.pylori産生ウレアーゼ]; format: biochemical, Helicobacter pylori (ATCC43504)
# Target sequence in this assay (P69996 whole entry, looked up): as the sequence (P69996 whole entry) above
# [4] = target: jack bean urease [なた豆ウレアーゼ] (Canavalia ensiformis, UniProt P07374); assay: Inhibition of jack bean urease (inhibition test example 1); format: biochemical; conditions: from tables 2 and 4
# [5] = Acute toxicity test, single dose, intravenous and oral; format: in vivo, Slc:SD rats and Slc:ICR mice; conditions: rats and mice
# jack bean urease [なた豆ウレアーゼ], sequence (P07374 whole entry, looked up): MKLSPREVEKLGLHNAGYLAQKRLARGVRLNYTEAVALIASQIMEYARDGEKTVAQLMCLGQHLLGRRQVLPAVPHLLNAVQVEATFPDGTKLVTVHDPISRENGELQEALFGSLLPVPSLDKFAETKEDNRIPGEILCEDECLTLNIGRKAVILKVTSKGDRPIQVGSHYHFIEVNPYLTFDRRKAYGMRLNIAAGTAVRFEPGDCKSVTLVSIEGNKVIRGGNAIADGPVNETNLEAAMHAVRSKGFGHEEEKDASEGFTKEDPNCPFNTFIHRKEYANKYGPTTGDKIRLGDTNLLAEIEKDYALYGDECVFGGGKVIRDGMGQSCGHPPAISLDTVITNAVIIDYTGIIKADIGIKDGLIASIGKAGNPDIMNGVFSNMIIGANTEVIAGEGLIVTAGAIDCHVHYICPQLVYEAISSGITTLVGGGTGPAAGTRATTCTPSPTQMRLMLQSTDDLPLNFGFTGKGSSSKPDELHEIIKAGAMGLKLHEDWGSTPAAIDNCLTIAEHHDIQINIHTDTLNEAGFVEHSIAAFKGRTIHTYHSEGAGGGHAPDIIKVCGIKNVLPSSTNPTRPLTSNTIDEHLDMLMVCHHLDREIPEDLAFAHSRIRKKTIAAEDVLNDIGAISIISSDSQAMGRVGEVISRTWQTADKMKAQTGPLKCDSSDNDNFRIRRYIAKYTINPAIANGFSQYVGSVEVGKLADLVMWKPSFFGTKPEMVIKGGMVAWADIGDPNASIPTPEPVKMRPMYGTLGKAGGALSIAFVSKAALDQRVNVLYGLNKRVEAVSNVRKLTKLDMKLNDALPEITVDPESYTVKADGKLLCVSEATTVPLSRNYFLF
SMILES,inhibition of H. pylori-produced urease [1],"anti-urease activity relative to acetohydroxamic acid ([1]; disclosed in Antimicrobial Agents and Chemotherapy, compared with acetohydroxamic acid) [fold]",inhibitory action on a wide range of ureases [2],H. pylori-produced urease inhibitory action [3],"activity relative to control substance (times stronger) ([3]; H. pylori-produced urease, control substance acetohydroxamic acid) [fold]","inhibitory activity on H. pylori-produced urease, compared with reference substances ([3]; versus acetohydroxamic acid, caprylohydroxamic acid, nicotinohydroxamic acid, benzohydroxamic acid, omeprazole and lansoprazole, from tables 2, 3 and 4)",inhibitory action on jack bean urease [4],"selectivity ratio ([5]; in vivo, intravenous and oral, multiple of the clinical dose by oral administration, read-out: LD50 values relative to the oral clinical dose)",safety ([5]; judged from LD50 values)
"COc1ccc2[nH]c([S+]([O-])Cc3ncc(C)c(OC)c3C)nc2c1 (stereo not shown) [オメプラゾール, 5−メトキシ−2−(4−メトキシ−3,5−ジメチルピリジン−2−イル)メチルスルフィニル−1H−ベンズイミダゾール]",阻害する,–,–,–,–,–,–,–,–
"Cc1c(OCC(F)(F)F)ccnc1C[S+]([O-])c1nc2ccccc2[nH]1 (stereo not shown) [ランソプラゾール, 2−[3−メチル−4−(2,2,2−トリフルオロエトキシ)ピリジン−2−イル]メチルスルフィニル−1H−ベンズイミダゾール]",阻害する,~2,–,–,–,–,–,–,–
"COCCCOc1ccnc(C[S+]([O-])c2nc3ccccc3[nH]2)c1C (stereo not shown) [本発明化合物, 2−[4−(3−メトキシプロポキシ)−3−メチルピリジン−2−イル]メチルスルフィニル−1H−ベンズイミダゾール]",–,–,阻害作用を示した,阻害作用を有している,~100,優れた阻害活性を有する,阻害作用も有しており,≥ 5000,安全性は極めて高い
